Molecular target: DRB3*0202 (Homo sapiens, UniProt P01903+P79483, A212P/D57E/F66Y/L67A/R103Q/R218S/R40L/S89Y/T80R/V86D/Y55F/Y59H)
Test: peptide affinity binding assay (in-vitro peptide-MHC binding affinity)
Conditions: PADRE and DRB3*0202

DRB3*0202, sequence (P01903 26-254 limits assumed): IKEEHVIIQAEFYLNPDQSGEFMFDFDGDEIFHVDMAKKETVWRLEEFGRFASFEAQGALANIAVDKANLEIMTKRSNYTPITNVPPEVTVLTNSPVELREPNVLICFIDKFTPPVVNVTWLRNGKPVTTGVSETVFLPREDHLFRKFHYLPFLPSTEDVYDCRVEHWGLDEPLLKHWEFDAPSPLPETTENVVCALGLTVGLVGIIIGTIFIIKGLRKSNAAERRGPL
DRB3*0202, sequence (P79483 30-266 R40L/Y55F/D57E/Y59H/F66Y/L67A/T80R/V86D/S89Y/R103Q/A212P/R218S limits assumed): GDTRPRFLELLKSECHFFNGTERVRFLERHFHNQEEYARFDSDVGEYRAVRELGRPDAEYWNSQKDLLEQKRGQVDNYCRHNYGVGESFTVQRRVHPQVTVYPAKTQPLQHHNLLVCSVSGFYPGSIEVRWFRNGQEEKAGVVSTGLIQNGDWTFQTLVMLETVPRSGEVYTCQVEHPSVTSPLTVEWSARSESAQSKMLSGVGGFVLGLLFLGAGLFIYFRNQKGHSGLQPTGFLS

## CC(C)C[C@H](NC(=O)[C@@H](NC(=O)[C@H](Cc1c[nH]c2ccccc12)NC(=O)[C@H](C)NC(=O)[C@H](C)NC(=O)[C@@H](NC(=O)[C@H](Cc1ccccc1)NC(=O)[C@H](CCCCN)NC(=O)[C@H](C)N)C(C)C)[C@@H](C)O)C(=O)N[C@@H](CCCCN)C(=O)N[C@@H](C)C(=O)N[C@@H](C)C(=O)N[C@@H](C)C(=O)O [PADRE]
  peptide-MHC binding affinity before and after the addition of an infrared fluorophore ligand: essentially unchanged

— patent US20250152685A1, “METHOD OF MAKING A PERSONALIZED CANCER VACCINE” (FLOW PHARMA, INC., priority 2019, published 2025)
